Laboratory results published in article PMC11971462, “Generation and validation of a novel multitarget small molecule in glioblastoma” (Cell Death & Disease, 2025).

Tested on: GNS166 cells
Assay: Label-free proteomics differential expression
Type: cell-based, human
Experimental: Proteomic studies were performed by the Proteomics Facility of the CIC bioGUNE by label-free relative quantification on nLC MS/MS. […] In both approaches, the top 20 enriched terms were plotted and the pathways were clustered using divisive hierarchical clustering based on pairwise Jaccard distances.

In the case of `C#CCN(Cc1cc2cc(OCCCN3CCCCC3)ccc2n1S(=O)(=O)c1ccccc1)C(=O)CCCCCCC(=O)NO` [DDI], the “LogFC STOM_HUMAN” value (protein P27105 GN=STOM) is reported as 1.045, the “LogFC CD82_HUMAN” value (protein P27701 GN=CD82) is reported as -1.866 and the “Direction PYR1_HUMAN” value (protein P27708) is reported as “Down”. For the same compound, the “LogFC PYR1_HUMAN” value (protein P27708) was -0.3818, the “LogFC GSTM2_HUMAN” value (protein P28161 GN=GSTM2) was 1.203 and the “Direction DPOD1_HUMAN” value (protein P28340) was “Down”. The “LogFC DPOD1_HUMAN” value (protein P28340) was -0.5649, the “LogFC GRAN_HUMAN” value (protein P28676 GN=GCA) was 2.772 and the “Direction CD34_HUMAN” value (protein P28906) was “Down”. For the same compound, the “LogFC CD34_HUMAN” value (protein P28906) was -1.0921, the “LogFC TPP2_HUMAN” value (protein P29144 GN=TPP2) was 0.5124 and the “LogFC CCN2_HUMAN” value (protein P29279 GN=CCN2) was 1.704. For the same compound, the “Direction EPHA2_HUMAN” value (protein P29317) was “Down”, the “LogFC EPHA2_HUMAN” value (protein P29317) was -1.4702 and the “LogFC AL4A1_HUMAN” value (protein P30038 GN=ALDH4A1) was 0.9924. For the same compound, the “LogFC BLVRB_HUMAN” value (protein P30043 GN=BLVRB) was 1.9711, the “LogFC CDC27_HUMAN” value (protein P30260 GN=CDC27) was -0.6942 and the “LogFC CCND3_HUMAN” value (protein P30281 GN=CCND3) was 1.575. The “Direction NMT1_HUMAN” value (protein P30419) was “Down”, the “LogFC NMT1_HUMAN” value (protein P30419) was -0.6586 and the “Direction UFO_HUMAN” value (protein P30530) was “Down”. The “LogFC UFO_HUMAN” value (protein P30530) was -2.709, the “Direction ILEU_HUMAN” value (protein P30740) was “Down” and the “LogFC ILEU_HUMAN” value (protein P30740) was -0.3615. For the same compound, the “Direction RIR2_HUMAN” value (protein P31350) was “Down”, the “LogFC RIR2_HUMAN” value (protein P31350) was -2.735 and the “Direction DNJA1_HUMAN” value (protein P31689) was “Down”. For the same compound, the “LogFC DNJA1_HUMAN” value (protein P31689) was -0.6634, the “LogFC AKT1_HUMAN” value (protein P31749 GN=AKT1) was -0.2725 and the “Direction TF2H1_HUMAN” value (protein P32780) was “Down”. For the same compound, the “LogFC TF2H1_HUMAN” value (protein P32780) was -0.6552, the “LogFC TTK_HUMAN” value (protein P33981 GN=TTK) was -1.092 and the “LogFC VATE1_HUMAN” value (protein P36543 GN=ATP6V1E1) was 1.641. The “LogFC PP1G_HUMAN” value (protein P36873 GN=PPP1CC) was 0.989, the “LogFC GNL1_HUMAN” value (protein P36915 GN=GNL1) was 0.9003 and the “Direction COIL_HUMAN” value (protein P38432) was “Down”. The “LogFC COIL_HUMAN” value (protein P38432) was -1.999, the “LogFC LICH_HUMAN” value (protein P38571 GN=LIPA) was 4.157 and the “LogFC VATA_HUMAN” value (protein P38606 GN=ATP6V1A) was 1.1187. For the same compound, the “Direction COIA1_HUMAN” value (protein P39060) was “Down”, the “LogFC COIA1_HUMAN” value (protein P39060) was -1.248 and the “LogFC MDHC_HUMAN” value (protein P40925 GN=MDH1) was 0.224. For the same compound, the “LogFC IF2G_HUMAN” value (protein P41091 GN=EIF2S3) was 0.129, the “LogFC EIF2D_HUMAN” value (protein P41214 GN=EIF2D) was -1.485 and the “Direction UBA7_HUMAN” value (protein P41226) was “Down”. For the same compound, the “LogFC UBA7_HUMAN” value (protein P41226) was -1.657, the “LogFC IPP2_HUMAN” value (protein P41236 GN=PPP1R2) was 1.34 and the “LogFC CSK_HUMAN” value (protein P41240 GN=CSK) was -0.3935. The “LogFC LAP2A_HUMAN” value (protein P42166 GN=TMPO) was -1.129, the “LogFC LAP2B_HUMAN” value (protein P42167 GN=TMPO) was -0.9256 and the “LogFC STAT1_HUMAN” value (protein P42224 GN=STAT1) was 0.5798. The “LogFC PK3CA_HUMAN” value (protein P42336 GN=PIK3CA) was -1.283, the “LogFC MTOR_HUMAN” value (protein P42345 GN=MTOR) was -0.7122 and the “LogFC CNDD3_HUMAN” value (protein P42695 GN=NCAPD3) was -2.052. For the same compound, the “LogFC THIM_HUMAN” value (protein P42765 GN=ACAA2) was 1.09, the “Direction KI67_HUMAN” value (protein P46013) was “Down” and the “LogFC KI67_HUMAN” value (protein P46013) was -1.787. The “LogFC ATRX_HUMAN” value (protein P46100 GN=ATRX) was -0.9089, the “Direction IF2M_HUMAN” value (protein P46199) was “Down” and the “LogFC IF2M_HUMAN” value (protein P46199) was -0.8269. The “LogFC MP2K3_HUMAN” value (protein P46734 GN=MAP2K3) was 1.1042, the “Direction STT3A_HUMAN” value (protein P46977) was “Down” and the “LogFC STT3A_HUMAN” value (protein P46977) was -0.5679. The “LogFC PA24A_HUMAN” value (protein P47712 GN=PLA2G4A) was 2.918, the “LogFC IF1AX_HUMAN” value (protein P47813 GN=EIF1AX) was 0.7555 and the “Direction AGRE5_HUMAN” value (protein P48960) was “Down”. The “LogFC AGRE5_HUMAN” value (protein P48960) was -1.142, the “LogFC UB2R1_HUMAN” value (protein P49427 GN=CDC34) was 1.5155 and the “Direction SYHM_HUMAN” value (protein P49590) was “Down”. The “LogFC SYHM_HUMAN” value (protein P49590) was -1.4939, the “LogFC VPS41_HUMAN” value (protein P49754 GN=VPS41) was 1.216 and the “Direction NU153_HUMAN” value (protein P49790) was “Down”. For the same compound, the “LogFC NU153_HUMAN” value (protein P49790) was -1.0035, the “Direction DNLI3_HUMAN” value (protein P49916) was “Down” and the “LogFC DNLI3_HUMAN” value (protein P49916) was -1.6. For the same compound, the “LogFC GBG4_HUMAN” value (protein P50150 GN=GNG4) was 2.6107, the “Direction SERPH_HUMAN” value (protein P50454) was “Down” and the “LogFC SERPH_HUMAN” value (protein P50454) was -1.017. For the same compound, the “Direction KNTC1_HUMAN” value (protein P50748) was “Down”, the “LogFC KNTC1_HUMAN” value (protein P50748) was -0.8446 and the “LogFC BCAM_HUMAN” value (protein P50895 GN=BCAM) was 1.4044. For the same compound, the “LogFC PLCD1_HUMAN” value (protein P51178 GN=PLCD1) was 0.5988, the “LogFC SMCA2_HUMAN” value (protein P51531 GN=SMARCA2) was -1.3906 and the “Direction SMCA4_HUMAN” value (protein P51532) was “Down”. The “LogFC SMCA4_HUMAN” value (protein P51532) was -1.513, the “LogFC TPMT_HUMAN” value (protein P51580 GN=TPMT) was 1.506 and the “LogFC IRAK1_HUMAN” value (protein P51617 GN=IRAK1) was -0.8883. For the same compound, the “Direction GPM6A_HUMAN” value (protein P51674) was “Down”, the “LogFC GPM6A_HUMAN” value (protein P51674) was -2.493 and the “Direction STA5B_HUMAN” value (protein P51692) was “Down”. For the same compound, the “LogFC STA5B_HUMAN” value (protein P51692) was -2.183, the “LogFC PLXA3_HUMAN” value (protein P51805 GN=PLXNA3) was 0.8663 and the “Direction CCNH_HUMAN” value (protein P51946) was “Down”. For the same compound, the “LogFC CCNH_HUMAN” value (protein P51946) was -0.7175, the “LogFC UB2E1_HUMAN” value (protein P51965 GN=UBE2E1) was -1.604 and the “Direction IMA1_HUMAN” value (protein P52292) was “Down”. The “LogFC IMA1_HUMAN” value (protein P52292) was -0.7516, the “LogFC EFNB2_HUMAN” value (protein P52799 GN=EFNB2) was 1.665 and the “LogFC ARFP1_HUMAN” value (protein P53367 GN=ARFIP1) was 1.754. For the same compound, the “Direction ACLY_HUMAN” value (protein P53396) was “Down”, the “LogFC ACLY_HUMAN” value (protein P53396) was -0.3852 and the “Direction SC5A3_HUMAN” value (protein P53794) was “Down”. For the same compound, the “LogFC SC5A3_HUMAN” value (protein P53794) was -1.548, the “LogFC SMTN_HUMAN” value (protein P53814 GN=SMTN) was -1.694 and the “LogFC HSP72_HUMAN” value (protein P54652 GN=HSPA2) was 3.712. For the same compound, the “LogFC SNAA_HUMAN” value (protein P54920 GN=NAPA) was 0.6489, the “Direction IF5_HUMAN” value (protein P55010) was “Down” and the “LogFC IF5_HUMAN” value (protein P55010) was -0.5429. For the same compound, the “LogFC S12A2_HUMAN” value (protein P55011 GN=SLC12A2) was 0.5141, the “LogFC XPO2_HUMAN” value (protein P55060 GN=CSE1L) was -0.4776 and the “LogFC BI1_HUMAN” value (protein P55061 GN=TMBIM6) was -0.6524. The “Direction MAZ_HUMAN” value (protein P56270) was “Down”, the “LogFC MAZ_HUMAN” value (protein P56270) was -1.733 and the “Direction SC61G_HUMAN” value (protein P60059) was “Down”.
